According to ChEMBL document CHEMBL5620377, “Research progress of VEGFR small molecule inhibitors in ocular neovascular diseases” (Eur J Med Chem, 2023):

Experiments:
[1] = Half life in human; type: ADME
[2] = test system: HUVEC; test: Inhibition of VEGF-induced HUVECs proliferation; type: functional, cell-based; conditions: Homo sapiens
[3] = Inhibition of PDGFRbeta (561 to 1106 residues) (unknown origin); set-up: species or system Homo sapiens
[4] = molecular target: T1, Vascular endothelial growth factor receptor 2 (Homo sapiens, UniProt P35968); test: Inhibition of VEGFR-2 (unknown origin)
[5] = molecular target: T1, Vascular endothelial growth factor receptor 2; test: Inhibition of recombinant human VEGFR2 using Poly (Glu,Tyr) 4:1 as substrate incubated for 1 hr by ELISA
[6] = molecular target: Platelet-derived growth factor receptor beta (Homo sapiens, UniProt P09619); test: Inhibition of recombinant human PDGFRbeta using Poly (Glu,Tyr) 4:1 as substrate incubated for 1 hr by ELISA
Chain of Platelet-derived growth factor receptor beta (P09619 whole entry): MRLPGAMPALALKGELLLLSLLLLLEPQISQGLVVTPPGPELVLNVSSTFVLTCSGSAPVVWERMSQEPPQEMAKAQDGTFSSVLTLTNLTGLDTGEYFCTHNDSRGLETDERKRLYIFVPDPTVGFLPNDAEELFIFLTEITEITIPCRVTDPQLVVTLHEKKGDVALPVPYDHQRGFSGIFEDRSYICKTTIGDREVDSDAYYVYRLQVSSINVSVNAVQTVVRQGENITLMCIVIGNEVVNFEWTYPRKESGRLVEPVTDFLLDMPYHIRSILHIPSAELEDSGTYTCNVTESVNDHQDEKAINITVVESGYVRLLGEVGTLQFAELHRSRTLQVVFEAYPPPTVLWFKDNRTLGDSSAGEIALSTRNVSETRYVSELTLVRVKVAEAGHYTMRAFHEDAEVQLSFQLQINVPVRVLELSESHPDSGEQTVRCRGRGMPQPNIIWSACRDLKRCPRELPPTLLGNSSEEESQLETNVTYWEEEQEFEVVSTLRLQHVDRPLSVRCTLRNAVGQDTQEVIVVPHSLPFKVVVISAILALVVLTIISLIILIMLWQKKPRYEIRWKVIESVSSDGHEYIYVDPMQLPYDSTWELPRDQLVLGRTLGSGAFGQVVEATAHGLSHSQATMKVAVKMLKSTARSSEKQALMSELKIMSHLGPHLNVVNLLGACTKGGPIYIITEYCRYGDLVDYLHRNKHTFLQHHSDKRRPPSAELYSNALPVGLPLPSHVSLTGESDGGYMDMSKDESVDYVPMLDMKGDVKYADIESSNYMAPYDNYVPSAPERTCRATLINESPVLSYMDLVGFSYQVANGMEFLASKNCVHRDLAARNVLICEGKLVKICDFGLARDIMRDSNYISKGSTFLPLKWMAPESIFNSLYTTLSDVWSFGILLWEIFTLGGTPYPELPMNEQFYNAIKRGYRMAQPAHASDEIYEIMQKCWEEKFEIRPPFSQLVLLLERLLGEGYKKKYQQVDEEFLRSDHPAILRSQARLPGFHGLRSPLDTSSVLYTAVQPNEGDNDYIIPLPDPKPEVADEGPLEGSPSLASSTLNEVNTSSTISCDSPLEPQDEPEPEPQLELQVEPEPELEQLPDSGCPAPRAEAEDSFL

T1 sequence (P35968 whole entry): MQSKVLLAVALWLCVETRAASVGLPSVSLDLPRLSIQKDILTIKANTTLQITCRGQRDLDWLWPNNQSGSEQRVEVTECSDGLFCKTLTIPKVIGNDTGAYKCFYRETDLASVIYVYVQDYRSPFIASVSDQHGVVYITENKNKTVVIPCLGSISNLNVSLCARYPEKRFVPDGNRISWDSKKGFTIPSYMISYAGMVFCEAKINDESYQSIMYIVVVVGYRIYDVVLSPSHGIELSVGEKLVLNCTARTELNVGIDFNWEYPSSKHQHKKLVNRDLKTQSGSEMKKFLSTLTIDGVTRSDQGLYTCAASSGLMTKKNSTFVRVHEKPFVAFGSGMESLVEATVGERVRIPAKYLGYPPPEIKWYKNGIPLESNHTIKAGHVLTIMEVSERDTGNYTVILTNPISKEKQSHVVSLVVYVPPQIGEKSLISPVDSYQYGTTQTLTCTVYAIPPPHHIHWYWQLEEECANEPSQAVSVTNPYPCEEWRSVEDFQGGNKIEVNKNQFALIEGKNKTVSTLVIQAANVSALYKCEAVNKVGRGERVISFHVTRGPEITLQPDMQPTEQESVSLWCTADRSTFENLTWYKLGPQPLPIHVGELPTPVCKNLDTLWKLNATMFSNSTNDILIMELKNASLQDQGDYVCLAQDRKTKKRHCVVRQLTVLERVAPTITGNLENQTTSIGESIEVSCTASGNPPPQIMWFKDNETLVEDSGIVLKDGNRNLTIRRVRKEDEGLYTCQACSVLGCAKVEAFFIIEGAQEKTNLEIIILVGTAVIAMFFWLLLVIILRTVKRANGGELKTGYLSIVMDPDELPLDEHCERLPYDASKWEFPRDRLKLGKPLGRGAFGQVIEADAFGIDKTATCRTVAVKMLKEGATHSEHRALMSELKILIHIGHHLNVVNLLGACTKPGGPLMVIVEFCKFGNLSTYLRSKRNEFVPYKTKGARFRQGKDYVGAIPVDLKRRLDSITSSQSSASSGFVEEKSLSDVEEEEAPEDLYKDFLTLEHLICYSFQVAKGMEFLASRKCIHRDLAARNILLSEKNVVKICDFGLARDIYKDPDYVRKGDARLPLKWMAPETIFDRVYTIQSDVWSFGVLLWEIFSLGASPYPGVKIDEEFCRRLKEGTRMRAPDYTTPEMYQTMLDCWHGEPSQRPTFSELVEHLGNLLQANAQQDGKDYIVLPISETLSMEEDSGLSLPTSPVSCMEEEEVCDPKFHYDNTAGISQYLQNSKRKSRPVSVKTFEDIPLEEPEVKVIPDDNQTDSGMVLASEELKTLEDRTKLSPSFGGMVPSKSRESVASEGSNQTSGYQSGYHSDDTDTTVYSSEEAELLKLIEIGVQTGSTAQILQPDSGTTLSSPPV

| Compound | half-life [1] [h] | IC50 [2] [nM] | IC50 [4] [nM] | also measured |
| --- | --- | --- | --- | --- |
| CNC(=O)c1cc(Oc2ccc(NC(=O)Nc3ccc(Cl)c(C(F)(F)F)c3)c(F)c2)ccn1 [REGORAFENIB] |  |  |  | IC50 [3]: 22 nM |
| C=C1C(=O)O[C@H]2C[C@H](C)C(/C=C/C(C)=O)=CC[C@H]12 |  |  | 380 |  |
| COc1cc2c(Oc3ccc4[nH]c(C)cc4c3F)ccnc2cc1OCC1(N)CC1 [CATEQUENTINIB] |  |  | < 1 | IC50 [5]: 0.2 nM; IC50 [6]: 115 nM |

Continued, in another order:

| half-life [1] [h] | Compound | IC50 [2] [nM] | IC50 [4] [nM] | also measured |
| --- | --- | --- | --- | --- |
| > 40 | CCN(CC)CCNC(=O)c1c(C)[nH]c(/C=C2\C(=O)Nc3ccc(F)cc32)c1C [SUNITINIB] | 12 |  |  |
| 6.5 | Cc1[nH]c(/C=C2\C(=O)Nc3ccc(F)cc32)c(C)c1C(=O)N[C@H]1CCN(C(=O)N(C)C)C1 [VOROLANIB] | 31.5 |  |  |
